What is called IC50 is the concentration that gives 50% inhibition.

In this experiment the target is T1, cyclin D1/cdk 4 enzyme (Homo sapiens, UniProt P11802).
T1 construct: made in house; host or cells: Sf9 insect cells, recombinant baculovirus
The experiment is described as follows: CDK4 ELISA kinase assay (phospho-Rb ser 795 detection). In kind it is biochemical. Particulars: In Vitro Enzyme Assay, cyclin D1/cdk 4, read-out: CDK4 IC50. The essentials:
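Screening was done at 10 ug/ml compound. Each partially purified cyclin/CDK complex, produced in baculovirus-infected Sf9 cells, phosphorylated a coated GST-Rb C-terminal fragment with 200 μM ATP, and Ser795 phosphorylation was quantified by HRP-ELISA at 450 nm.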

T1 sequence (P11802 whole entry, species assumed): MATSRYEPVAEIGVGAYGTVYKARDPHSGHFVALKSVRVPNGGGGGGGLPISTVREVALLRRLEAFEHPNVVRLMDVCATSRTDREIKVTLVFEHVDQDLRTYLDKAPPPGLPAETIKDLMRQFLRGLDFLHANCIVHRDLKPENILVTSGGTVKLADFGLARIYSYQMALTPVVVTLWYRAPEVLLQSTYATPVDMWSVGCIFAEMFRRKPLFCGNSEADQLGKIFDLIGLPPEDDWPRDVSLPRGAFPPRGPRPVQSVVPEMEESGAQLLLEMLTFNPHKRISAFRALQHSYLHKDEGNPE
T1 sequence (P24385 whole entry partner, species assumed): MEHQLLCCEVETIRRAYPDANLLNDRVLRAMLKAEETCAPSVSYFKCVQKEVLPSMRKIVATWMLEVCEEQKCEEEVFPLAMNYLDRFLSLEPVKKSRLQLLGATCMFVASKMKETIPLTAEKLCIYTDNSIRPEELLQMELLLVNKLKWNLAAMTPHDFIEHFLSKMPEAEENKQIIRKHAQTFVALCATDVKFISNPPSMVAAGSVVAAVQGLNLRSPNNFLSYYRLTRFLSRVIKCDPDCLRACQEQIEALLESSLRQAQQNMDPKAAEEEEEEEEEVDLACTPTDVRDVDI

With `CCNS(=O)(=O)c1ccc(CN/C=C2\C(=O)NC(=O)c3ccccc32)cc1` [Example 606, 4-{[(1,3-Dioxo-2,3-dihydro-1H-isoquinolin-4-ylidenemethyl)-amino]-methyl}-N-ethyl-benzenesulfonamide], the IC50 was determined as 21.2 µM.

Turning to `O=C1NC(=O)c2ccccc2C1=CNc1ccc(N2CCN(CCN3CCCC3)CC2)cc1` [Example 572, 4-({4-[4-(2-Pyrrolidin-1-yl-ethyl)-piperazin-1-yl]-phenylamino}-methylene)-4H-isoquinoline-1,3-dione], the IC50 came to 37 µM. Next, `N#CCc1ccc(NC=C2C(=O)NC(=O)c3ccc(-c4cccc5ccccc45)cc32)cc1` [Example 623, {4-[(6-Naphthalen-1-yl-1,3-dioxo-2,3-dihydro-1H-isoquinolin-4-ylidenemethyl)-amino]-phenyl)-acetonitrile]: 25.1 µM; `O=C1NC(=O)c2ccccc2C1=CNc1ccc(CNS(=O)(=O)CC(F)(F)F)cc1` [Example 605, 2,2,2-Trifluoro-ethanesulfonic acid 4-[(1,3-dioxo-2,3-dihydro-1H-isoquinolin-4-ylidenemethyl)-amino]-benzylamide]: 22.1 µM.

In the case of `N#CCc1ccc(NC=C2C(=O)NC(=O)c3ccc(C=Cc4ccccn4)cc32)cc1` [Example 648, (4-{[1,3-Dioxo-6-(2-pyridin-2-yl-vinyl)-2,3-dihydro-1H-isoquinolin-4-ylidenemethyl]-amino}-phenyl)-acetonitrile], the concentration for half-maximal inhibition (IC50) was 18.6 µM. The result for `N#CCc1ccc(NC=C2C(=O)NC(=O)c3ccc(-c4cc[nH]c4)cc32)cc1` [Example 631, (4-{[1,3-Dioxo-6-(1H-pyrrol-3-yl)-2,3-dihydro-1H-isoquinolin-4-ylidenemethyl]-amino}-phenyl)-acetonitrile] reads 4.2 µM; that for `NS(=O)(=O)c1ccc(CNC=C2C(=O)NC(=O)c3ccc(C=CCn4ccnc4)cc32)cc1` [Example 657, 4-({[6-(3-Imidazol-1-yl-propenyl)-1,3-dioxo-2,3-dihydro-1H-isoquinolin-4-ylidenemethyl]-amino}-methyl)-benzenesulfonamide], 2.2 µM.

Turning to `CN1CCN(c2ccc(NC=C3C(=O)NC(=O)c4ccc(C=Cc5ccccc5)cc43)cc2)CC1` [Example 677, 4-{[4-(4-Methyl-piperazin-1-yl)-phenylamino]-methylene}-6-styryl-4H-isoquinoline-1,3-dione], the IC50 is 14.3 µM. `COc1ccc(C=Cc2ccc3c(c2)C(=CNc2ccc(N4CCN(C)CC4)cc2)C(=O)NC3=O)cc1` [Example 732, 6-[2-(4-Methoxy-phenyl)-vinyl]-4-{[4-(4-methyl-piperazin-1-yl)-phenylamino]-methylene}-4H-isoquinoline-1,3-dione]: the concentration for half-maximal inhibition (IC50) amounted to 25.8 µM. As to `O=C1NC(=O)c2ccccc2C1=CNc1ccc(N2CCN(CCO)CC2)cc1` [Example 598, 4-({4-[4-(2-Hydroxy-ethyl)-piperazin-1-yl]-phenylamino}-methylene)-4H-isoquinoline-1,3-dione], the concentration for half-maximal inhibition (IC50) came out at 33.1 µM.

As to `CN1CCN(c2ccc(NC=C3C(=O)NC(=O)c4ccc(C=Cc5ccc(Cl)cc5)cc43)cc2)CC1` [Example 726, 6-[2-(4-Chloro-phenyl)-vinyl]-4-{[4-(4-methyl-piperazin-1-yl)-phenylamino]-methylene}-4H-isoquinoline-1,3-dione], the IC50 worked out at 16.9 µM.

Turning to `COc1ccccc1-c1ccc2c(c1)C(=CNc1ccc(CC#N)cc1)C(=O)NC2=O` [Example 703, (4-{[6-(2-Methoxy-phenyl)-1,3-dioxo-2,3-dihydro-1H-isoquinolin-4-ylidenemethyl]-amino}-phenyl)-acetonitrile], the half-inhibitory concentration (IC50) amounted to 18.5 µM. The result for `NS(=O)(=O)c1ccc(CNC=C2C(=O)NC(=O)c3ccc(-c4cccc(-c5ccccc5)c4)cc32)cc1` [Example 758, 4-{[(6-Biphenyl-3-yl-1,3-dioxo-2,3-dihydro-1H-isoquinolin-4-ylidenemethyl)-amino]-methyl}-benzenesulfonamide] reads 25.7 µM; that for `CN1CCN(c2ccc(NC=C3C(=O)NC(=O)c4ccc(-c5cccc(Cl)c5)cc43)cc2)CC1` [Example 690, 6-(3-Chloro-phenyl)-4-{[4-(4-methyl-piperazin-1-yl)-phenylamino]-methylene}-4H-isoquinoline-1,3-dione], 20.7 µM; that for `CCCS(=O)(=O)Nc1cccc(CNC=C2C(=O)NC(=O)c3ccccc32)c1` [Example 584, Propane-1-sulfonic acid (3-{[(1,3-dioxo-2,3-dihydro-1H-isoquinolin-4-ylidenemethyl)-amino]-methyl}-phenyl)-amide], 19.4 µM.

For the compound `O=C1NC(=O)c2ccccc2C1=CNC(Cc1ccc(O)c(O)c1)C(=O)O` (stereo not shown) [Example 566, 3-(3,4-Dihydroxy-phenyl)-2-[(1,3-dioxo-2,3-dihydro-1H-isoquinolin-4-ylidenemethyl)-amino]-propionic acid], the IC50 was determined as 29.7 µM. Next, `NS(=O)(=O)c1ccc(CNC=C2C(=O)NC(=O)c3ccc(-c4ccc(C(F)(F)F)cc4)cc32)cc1` [Example 743, 4-({[1,3-Dioxo-6-(4-trifluoromethyl-phenyl)-2,3-dihydro-1H-isoquinolin-4-ylidenemethyl]-amino}-methyl)-benzenesulfonamide]: 11.3 µM; `O=C(O)CCCc1ccc(NC=C2C(=O)NC(=O)c3ccccc32)cc1` [Example 558, 4-{4-[(1,3-Dioxo-2,3-dihydro-1H-isoquinolin-4-ylidenemethyl)-amino]-phenyl}-butyric acid]: 27.4 µM; `COc1ccc(NC=C2C(=O)NC(=O)c3ccccc32)cc1O` [Example 561, 4-[(3-Hydroxy-4-methoxy-phenylamino)-methylene]-4H-isoquinoline-1,3-dione]: 45.2 µM.

As to `CSc1ccc(-c2ccc3c(c2)C(=CNc2ccc(CC#N)cc2)C(=O)NC3=O)cc1` [Example 723, (4-{[6-(4-Methylsulfanyl-phenyl)-1,3-dioxo-2,3-dihydro-1H-isoquinolin-4-ylidenemethyl]-amino}-phenyl)-acetonitrile], the IC50 worked out at 12.2 µM. The result for `NS(=O)(=O)c1ccc(CNC=C2C(=O)NC(=O)c3ccc(-c4cccc5cccnc45)cc32)cc1` [Example 633, 4-{[(1,3-Dioxo-6-quinolin-8-yl-2,3-dihydro-1H-isoquinolin-4-ylidenemethyl)-amino]-methyl}-benzenesulfonamide] reads 32.3 µM. In the case of `CN1CCN(c2ccc(NC=C3C(=O)NC(=O)c4ccc(C=Cc5ccc(C(=O)O)cc5)cc43)cc2)CC1` [Example 727, 4-[2-(4-{[4-(4-Methyl-piperazin-1-yl)-phenylamino]-methylene}-1,3-dioxo-1,2,3,4-tetrahydro-isoquinolin-6-yl)-vinyl]-benzoic acid], the IC50 was determined as 20.4 µM. As to “6-[2-(4-Fluoro-phenyl)-vinyl]-4-{[4-(4-methyl-piperazin-1-yl)-phenylamino]-methylene}-4H-isoquinoline-1,3-dione [Example 731]”, the IC50 amounted to 45.2 µM. Regarding `O=C(O)C=Cc1ccc(NC=C2C(=O)NC(=O)c3ccccc32)cc1` [Example 557, 3-{4-[(1,3-Dioxo-2,3-dihydro-1H-isoquinolin-4-ylidenemethyl)-amino]-phenyl}-acrylic acid], the IC50 amounted to 19.4 µM. Next, `O=C1NC(=O)c2ccccc2C1=CNc1cc(Cl)c([N+](=O)[O-])cc1O` [Example 570, 4-[(5-Chloro-2-hydroxy-4-nitro-phenylamino)-methylene]-4H-isoquinoline-1,3-dione]: 22 µM.
